Source: PMC9284491 (Nature Communications, 2022)
“Also recorded” adds a separate entry of the source. Read-outs that look alike come from different tables or passages of the source.

What was measured:
[1] = Amcenestrant plasma pharmacokinetics (LC-MS/MS, non-compartmental analysis); format: in vivo, human; conditions: for AUC(0-t) / Cmax / Tmax: human, plasma, oral
Experimental: To evaluate pharmacokinetics in Part A, venous blood samples were collected pre-dose and at regular intervals on cycle 1, day 1 (up to 48 h), on day 3 (up to 24 h), and on day 22 (up to 24 h). […] The validated range was 5 ng/mL to 5000 ng/mL.
In Part B, venous blood samples were collected pre-dose and at regular intervals on cycle 1, day 1 (up to 24 h), and on day 22 (up to 24 h).
NCA was performed using Phoenix® software.

[2] = 24 h urine fraction, renal elimination of amcenestrant; format: in vivo, human; conditions: Part B, QD administration
CYP3A = assay: 4β-hydroxycholesterol ratio, induction/inhibition effect on CYP3A; format: in vivo, human; conditions: ≥200 mg QD
Ki67 = assay: Paired tumor biopsy IHC, Ki67 positive cells; format: in vivo, human; conditions: cycle 2, day 28; n = 7; range −30 to +30%
Experimental: Staining was evaluated in tumor cells only.
Results were analyzed using descriptive statistics.

[3] = tested on: ER activity signature (87 genes); assay: ER activation score by GSVA of RNA-seq from paired tumor biopsies; format: in vivo, human
Source text: Total RNA was extracted from FFPE tissue (slides of 10 μm). A targeted-enrichment RNA-seq approach was applied utilizing KAPA RNA HyperPrep and whole exome […] kits (Roche) followed by the generation of sequencing reads with NextSeq 500 (Illumina). RNA-seq FASTQ files were processed with STAR aligner and Cufflinks to generate gene-level fragments per kilobase of transcript per million mapped reads (FPKM)[34],[47],[48]. Those FPKM values were converted to the gene-level estimation of expression in transcripts per million (TPM). The TPM data were then quantile-normalized and log2-transformed. GSVA was employed to calculate the ER activation score by using the ER activity signature (87 genes)[31]. […] Results were analyzed using descriptive statistics.

[4] = tested on: ER+/HER2− advanced breast cancer; assay: Antitumor activity per RECIST v1.1 (ORR, CBR, best overall response); format: in vivo, human; conditions: Part A, local review, n = 16
ER = tested on: ER; design: method as in PMID 31721572; conditions: in vitro, preclinical, cited from earlier work
[5] = design: method as in PMID 31721572; conditions: preclinical; cited from earlier work
[6] = Part A, repeated QD, Cycle 1 Day 22, fasting, 20 mg, N 3
[7] = Part A, repeated QD, Cycle 1 Day 22, fasting, 150 mg, N 2
[8] = Part A, repeated QD, Cycle 1 Day 22, fasting, 200 mg, N 3
[9] = Part A, repeated QD, Cycle 1 Day 22, fasting, 400 mg, N 3
[10] = Part A, repeated QD, Cycle 1 Day 22, fasting, 600 mg, N 3
[11] = Part B, 400 mg QD, Day 22, N 13

O=C(O)c1ccc2c(c1)CCCC(c1ccc(Cl)cc1Cl)=C2c1ccc(O[C@H]2CCN(CCCF)C2)cc1 [amcenestrant, 6-(2,4-Dichlorophenyl)−5-[4-[(3S)−1-(3-fluoropropyl)pyrrolidin-3-yl]oxyphenyl]−8,9-dihydro-7H-benzo[7]annulene-2-carboxylic acid]
total variability of exposure ([1]; 400 mg dose): < 40%
dose proportionality of exposure ([1]; 20–600 mg QD, single or multiple administrations): did not deviate significantly from dose proportionality; also recorded: exposure increased proportionally with doses up to 600 mg
accumulation on day 22 ([1]; Part A, doses ≥400 mg QD): No accumulation was observed
delay of median tmax by food ([1]; Part A, moderate fat breakfast): ≈ 1 h
food effect on exposure ([1]; Part A, moderate fat breakfast): modestly increased exposure
CLss/F, Geometric mean (CV%) [1, 6]: 14.8 (75.8) L/h
CLss/F, Mean ± SD [1, 6]: 18.0 ± 13.7 L/h
Ctrough, Mean ± SD [1, 6]: 12.6 ± 13.6 ng/mL
CLss/F, Geometric mean (CV%) [1, 7]: 9.99 (46.3) L/h
CLss/F, Mean ± SD [1, 7]: 10.6 ± 4.89 L/h
Ctrough, Geometric mean (CV%) [1, 7]: 134 (15.7) ng/mL
Ctrough, Mean ± SD [1, 7]: 135 ± 21.2 ng/mL
CLss/F, Geometric mean (CV%) [1, 8]: 14.9 (28.0) L/h
CLss/F, Mean ± SD [1, 8]: 15.3 ± 4.30 L/h
Ctrough, Geometric mean (CV%) [1, 8]: 115 (73.0) ng/mL
Ctrough, Mean ± SD [1, 8]: 140 ± 102 ng/mL
CLss/F, Geometric mean (CV%) [1, 9]: 13.5 (95.7) L/h
CLss/F, Mean ± SD [1, 9]: 18.1 ± 17.4 L/h
Ctrough, Geometric mean (CV%) [1, 9]: 245 (79.3) ng/mL
Ctrough, Mean ± SD [1, 9]: 397 ± 315 ng/mL
CLss/F, Geometric mean (CV%) [1, 10]: 14.4 (26.9) L/h
CLss/F, Mean ± SD [1, 10]: 14.7 ± 3.96 L/h
Cmax, Geometric mean (CV%) [1, 10]: 5510 (17.3) ng/mL
Ctrough, Geometric mean (CV%) [1, 10]: 350 (88.2) ng/mL
Ctrough, Mean ± SD [1, 10]: 449 ± 396 ng/mL
Cmax, Geometric mean (CV%) ([1]; Part B, 400 mg QD, Day 1, N 16): 5460 (46.8) ng/mL
Tlag, Median ([1]; Part B, 400 mg QD, Day 1, N 16): 0 h
CLss/F, Geometric mean (CV%) [1, 11]: 9.90 (41.0) L/h
CLss/F, Mean ± SD [1, 11]: 10.6 ± 4.35 L/h
apparent total clearance from plasma at steady state (CLss/F) ([1]; Part B, 400 mg QD, day 22): 10.6 L/h
coefficient of variation for AUC0-24h ([1]; Part B, 400 mg QD, day 22): 37.5%
coefficient of variation for Cmax ([1]; Part B, 400 mg QD, day 22): 28.0%
AUC(0-t) ([1]; 400 mg, Part B, 400 mg QD, Day 1, N 16, read-out: AUC0-24, Geometric mean (CV%)): 44800 ng·h/mL
AUC(0-t) ([1]; 400 mg, Part B, 400 mg QD, Day 1, N 16, read-out: AUC0-24, Mean ± SD): 50900 ± 26000 ng·h/mL
Cmax ([1]; 400 mg, Part B, 400 mg QD, Day 1, N 16, read-out: Cmax, Mean ± SD): 6020 ± 2810 ng/mL
AUC(0-t) ([1]; 400 mg, Part B, 400 mg QD, Day 22, N 13, read-out: AUC0-24, Mean ± SD): 43200 ± 16200 ng·h/mL
Cmax ([1]; 400 mg, Part B, 400 mg QD, Day 22, N 13, read-out: Cmax, Geometric mean (CV%)): 4220 ng/mL
Cmax ([1]; 400 mg, Part B, 400 mg QD, Day 22, N 13, read-out: Cmax, Mean ± SD): 4380 ± 1230 ng/mL
Tmax ([1]; Part A, single dose day 1, starting from the 150-mg dose, read-out: median time to maximum concentration [tmax]): ~3 h
Tmax ([1]; Part B, 400 mg QD, Day 1, N 16, read-out: tmax, Median): 3.98 h
amcenestrant excreted in urine over the 24-h interval [2]: < 0.1 % of the administered dose
effect on CYP3A liver enzyme activity (CYP3A): can induce cytochrome P450 (CYP) 3 A liver enzyme activity
median change from screening in percentage of Ki67 positive cells (Ki67): −8%
ER activation score by GSVA, median change from screening ([3]; cycle 2, day 28, n = 5, range −1.1 to +0.4): −0.4
ER activation score, median change from screening ([3]; patients who showed clinical benefit, n = 4, range −1.1 to 0): −0.6
ER activation score, change from screening ([3]; the patient with no clinical benefit): +0.4
objective response rate (ORR) [4]: 6.3%
stable disease (SD), patients [4]: 50%
ER degradation efficacy (ER): 98%
EC50 (ER; read-out: ER degradation potency): 0.2 nM
metabolic stability [5]: metabolically stable
